From patent publication US7138361B2, “Herbicidal heterocycles” (E. I. du Pont de Nemours and Company, priority 2000, dated 2006)

Experiments:
Assay type in all cases: in vivo
rice (Oryza saliva) = assay: Test C flooded paddy test; conditions: for Plant response rating, Rice: scale 0 to 100 (0 no effect, 100 complete control)
Method in brief: (§1)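 Flooded paddy, 2-leaf stage at treatment. Readout: visual % control vs untreated, 0–100, at 12–14 d in greenhouse.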

[1] = system: duck salad (Heteranthera limosa); assay: Test C flooded paddy test; conditions: for Plant response rating, Ducksalad: scale 0 to 100 (0 no effect, 100 complete control)
Method in brief: as §1

[2] = system: smallflower flatsedge (Cyperus difformis); assay: Test C flooded paddy test; conditions: for Plant response rating, Flatsedge: scale 0 to 100 (0 no effect, 100 complete control)
Method in brief: as §1

[3] = system: barnyardgrass (Echinochloa crus-galli); assay: Test C flooded paddy test; conditions: for Plant response rating, Barnyardgrass: scale 0 to 100 (0 no effect, 100 complete control)
Method in brief: as §1

[4] = system: giant foxtail (Setaria faberii); assay: Test C preemergence
Method in brief: (§2)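 Herbicidal effect is a visual 0–100 score (100 = complete control) assigned versus untreated plants, 12 to 14 days after spraying in the greenhouse. Test compounds were applied in a non-phytotoxic, surfactant-containing solvent.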

[5] = system: velvetleaf (Abutilon theophrasti); assay: Test C preemergence; conditions: preemergence
Method in brief: as §2

[6] = system: morningglory (Ipomoea hederacea); assay: Test C preemergence; conditions: preemergence
Method in brief: as §2

Sunflower = assay: Test C preemergence; conditions: Rate 125 g/ha; scale 0 to 100, 0 no effect, 100 complete control
[7] = system: goosegrass (Eleusine indica); assay: Test C preemergence
Method in brief: as §2

[8] = system: yellow nutsedge (Cyperus esculentus); assay: Test C preemergence
Method in brief: as §2

[9] = system: Surinam grass (Brachiaria decumbens); assay: Test C preemergence
Method in brief: as §2

kochia (Kochia scoparia) = assay: Test C preemergence; conditions: for Plant response rating, Kochia: scale 0 to 100, 0 no effect, 100 complete control
Method in brief: as §2

[10] = system: johnsongrass (Sorghum halepense); assay: Test C preemergence
Method in brief: as §2

[11] = system: crabgrass (Digitaria sanguinalis); assay: Test C preemergence
Method in brief: as §2

[12] = system: cocklebur (Xanthium strumarium); assay: Test C preemergence; conditions: for Plant response rating, Cocklebur: scale 0 to 100, 0 no effect, 100 complete control
Method in brief: as §2

[13] = system: bermudagrass (Cynodon dactylon); assay: Test C preemergence
Method in brief: as §2

[14] = system: woolly cupgrass (Eriochloa villosa); assay: Test C preemergence
Method in brief: as §2

soybean (Glycine max) = assay: Test C preemergence
Method in brief: as §2

[15] = system: common ragweed (Ambrosia elatior); assay: Test C preemergence
Method in brief: as §2

[16] = system: pigweed (Amaranthus retroflexus); assay: Test C preemergence
Method in brief: as §2

Nightshade [17] = assay: Test C preemergence
corn (Zea mays) = assay: Test C preemergence
Method in brief: as §2

Nightshade [18] = assay: Test C preemergence; conditions: Rate 500 g/ha, visual evaluation after 12 to 14 days
[19] = Flooded Paddy, Rate 500 g/ha, scale 0 to 100, 0 no effect, 100 complete control
[20] = flooded paddy test, Rate 125 g/ha
[21] = flooded paddy test, Rate 250 g/ha
[22] = flooded paddy test, Rate 62 g/ha, visually evaluated after 12 to 14 days, 0 = no effect, 100 = complete control
[23] = Rate 125 g/ha, scale 0 to 100, 0 no effect, 100 complete control
[24] = preemergence, Rate 62 g/ha, scale 0 to 100
[25] = preemergence, Rate 500 g/ha, visual evaluation after 12 to 14 days
[26] = preemergence, Rate 250 g/ha, scale 0 to 100, 0 no effect, 100 complete control
[27] = Rate 500 g/ha, visual evaluation after 12 to 14 days
[28] = Rate 250 g/ha, scale 0 to 100, 0 no effect, 100 complete control

CCCC(C)c1ccn(C2OCN(c3cccc(OC(F)F)c3)C2=O)n1 (stereo not drawn) [Compound 132]
Rice plant response rating (rice (Oryza saliva); [19]): 90
Plant response rating, Rice (rice (Oryza saliva); [20]): 20
Plant response rating, Rice (rice (Oryza saliva); [21]): 20
Plant response rating (scale 0 to 100), Rice (rice (Oryza saliva); [22]): 0
Ducksalad plant response rating [1, 19]: 80
Plant response rating, Ducksalad [1, 20]: 20
Plant response rating, Ducksalad [1, 21]: 40
Plant response rating (scale 0 to 100), Ducksalad [1, 22]: 0
Flatsedge plant response rating [2, 19]: 90
Plant response rating, Flatsedge [2, 20]: 90
Plant response rating, Flatsedge [2, 21]: 90
Plant response rating (scale 0 to 100), Flatsedge [2, 22]: 90
Barnyardgrass plant response rating [3, 19]: 100
Plant response rating, Barnyardgrass [3, 20]: 70
Plant response rating, Barnyardgrass [3, 21]: 100
Plant response rating (scale 0 to 100), Barnyardgrass [3, 22]: 40
Plant response rating, Foxtail, Giant [4, 23]: 70
Plant response rating, Foxtail, Giant [4, 24]: 70
Plant response rating (0 to 100), Foxtail, Giant [4, 25]: 100
Plant response rating, Foxtail, Giant [4, 26]: 100
Plant response rating, Velvetleaf ([5]; Rate 62 g/ha, scale 0 to 100): 0
Plant response rating (0 to 100), Velvetleaf [5, 27]: 0
Plant response rating, Velvetleaf [5, 28]: 0
Plant response rating, Morningglory ([6]; Rate 62 g/ha, scale 0 to 100): 0
Plant response rating (0 to 100), Morningglory [6, 27]: 0
Plant response rating, Morningglory [6, 28]: 0
Plant response rating, Sunflower (Sunflower): 20
Plant response rating, Goosegrass [7, 23]: 100
Plant response rating, Goosegrass [7, 24]: 100
Plant response rating (0 to 100), Goosegrass [7, 25]: 100
Plant response rating, Goosegrass [7, 26]: 100
Plant response rating, Nutsedge [8, 23]: 0
Plant response rating, Nutsedge [8, 24]: 0
Plant response rating (0 to 100), Nutsedge [8, 25]: 90
Plant response rating, Nutsedge [8, 26]: 0
Plant response rating, Surinam grass [9, 23]: 100
Plant response rating, Surinam grass [9, 24]: 90
Plant response rating (0 to 100), Surinam grass [9, 25]: 100
Plant response rating, Surinam grass [9, 26]: 100
Plant response rating, Kochia (kochia (Kochia scoparia); Rate 125 g/ha): 100
Plant response rating (0 to 100), Kochia (kochia (Kochia scoparia); [25]): 100
Plant response rating, Kochia (kochia (Kochia scoparia); preemergence, Rate 250 g/ha): 100
Plant response rating, Johnsongrass [10, 23]: 80
Plant response rating, Johnsongrass [10, 24]: 50
Plant response rating (0 to 100), Johnsongrass [10, 25]: 100
Plant response rating, Johnsongrass [10, 26]: 100
Plant response rating, Crabgrass [11, 23]: 100
Plant response rating, Crabgrass [11, 24]: 100
Plant response rating (0 to 100), Crabgrass [11, 25]: 100
Plant response rating, Crabgrass [11, 26]: 100
Plant response rating, Cocklebur ([12]; Rate 125 g/ha): 0
Plant response rating (0 to 100), Cocklebur [12, 25]: 0
Plant response rating, Cocklebur ([12]; preemergence, Rate 250 g/ha): 0
Plant response rating, Bermudagrass [13, 23]: 100
Plant response rating, Bermudagrass [13, 24]: 100
Plant response rating (0 to 100 where 0 is no effect and 100 is complete control), Bermudagrass [13, 25]: 100
Plant response rating, Bermudagrass [13, 26]: 100
Plant response rating, Cupgrass, Woolly [14, 23]: 100
Plant response rating, Cupgrass, Woolly [14, 24]: 90
Plant response rating (0 to 100), Cupgrass, Woolly [14, 25]: 100
Plant response rating, Cupgrass, Woolly [14, 26]: 100
Plant response rating, Soybean (soybean (Glycine max); [23]): 20
Plant response rating, Soybean (soybean (Glycine max); [24]): 20
Plant response rating (0 to 100), Soybean (soybean (Glycine max); [25]): 30
Plant response rating, Soybean (soybean (Glycine max); [26]): 20
Plant response rating, Ragweed, Common [15, 23]: 0
Plant response rating, Ragweed, Common [15, 24]: 0
Plant response rating (0 to 100), Ragweed, Common [15, 25]: 0
Plant response rating, Ragweed, Common [15, 26]: 0
Plant response rating, Pigweed [16, 23]: 30
Plant response rating, Pigweed [16, 24]: 0
Plant response rating (0 to 100), Pigweed [16, 25]: 100
Plant response rating, Pigweed [16, 26]: 70
Plant response rating, Nightshade (Nightshade [17]; Rate 62 g/ha, scale 0 to 100): 0
Plant response rating, Nightshade (Nightshade [17]; [23]): 0
Plant response rating, Nightshade (Nightshade [17]; [28]): 20
Plant response rating, Corn (corn (Zea mays); [23]): 10
Plant response rating, Corn (corn (Zea mays); [24]): 0
Plant response rating (0 to 100), Corn (corn (Zea mays); [25]): 90
Plant response rating, Corn (corn (Zea mays); [26]): 70
Plant response rating (0 to 100), Nightshade (Nightshade [18]): 20
